Results from publication PMC7730458, “Rational Computational Design of Fourth-Generation EGFR Inhibitors to Combat Drug-Resistant Non-Small Cell Lung Cancer” (International Journal of Molecular Sciences, 2020).
Read-outs that look alike come from different tables or passages of the source.

Tests used:
[1] = target: T1, d746-750/T790M/C797S mutant EGFR (Homo sapiens, UniProt P00533, C797S/DEL746-750/T790M); assay: radiometric ([γ-33P]-ATP) kinase assay, triple mutant EGFR; format: biochemical; conditions: for Selectivity: wild type IC50 over triple mutant IC50; for Selectivity Index (IC50^WT/IC50^mutant): ratio of IC50 for the wild type to that for the triple mutant
T1 construct: purchased Reaction Biology Corp. (Malvern, PA, USA)
T1 sequence (P00533 with tags, fused parts or gaps DEL746-750/T790M/C797S): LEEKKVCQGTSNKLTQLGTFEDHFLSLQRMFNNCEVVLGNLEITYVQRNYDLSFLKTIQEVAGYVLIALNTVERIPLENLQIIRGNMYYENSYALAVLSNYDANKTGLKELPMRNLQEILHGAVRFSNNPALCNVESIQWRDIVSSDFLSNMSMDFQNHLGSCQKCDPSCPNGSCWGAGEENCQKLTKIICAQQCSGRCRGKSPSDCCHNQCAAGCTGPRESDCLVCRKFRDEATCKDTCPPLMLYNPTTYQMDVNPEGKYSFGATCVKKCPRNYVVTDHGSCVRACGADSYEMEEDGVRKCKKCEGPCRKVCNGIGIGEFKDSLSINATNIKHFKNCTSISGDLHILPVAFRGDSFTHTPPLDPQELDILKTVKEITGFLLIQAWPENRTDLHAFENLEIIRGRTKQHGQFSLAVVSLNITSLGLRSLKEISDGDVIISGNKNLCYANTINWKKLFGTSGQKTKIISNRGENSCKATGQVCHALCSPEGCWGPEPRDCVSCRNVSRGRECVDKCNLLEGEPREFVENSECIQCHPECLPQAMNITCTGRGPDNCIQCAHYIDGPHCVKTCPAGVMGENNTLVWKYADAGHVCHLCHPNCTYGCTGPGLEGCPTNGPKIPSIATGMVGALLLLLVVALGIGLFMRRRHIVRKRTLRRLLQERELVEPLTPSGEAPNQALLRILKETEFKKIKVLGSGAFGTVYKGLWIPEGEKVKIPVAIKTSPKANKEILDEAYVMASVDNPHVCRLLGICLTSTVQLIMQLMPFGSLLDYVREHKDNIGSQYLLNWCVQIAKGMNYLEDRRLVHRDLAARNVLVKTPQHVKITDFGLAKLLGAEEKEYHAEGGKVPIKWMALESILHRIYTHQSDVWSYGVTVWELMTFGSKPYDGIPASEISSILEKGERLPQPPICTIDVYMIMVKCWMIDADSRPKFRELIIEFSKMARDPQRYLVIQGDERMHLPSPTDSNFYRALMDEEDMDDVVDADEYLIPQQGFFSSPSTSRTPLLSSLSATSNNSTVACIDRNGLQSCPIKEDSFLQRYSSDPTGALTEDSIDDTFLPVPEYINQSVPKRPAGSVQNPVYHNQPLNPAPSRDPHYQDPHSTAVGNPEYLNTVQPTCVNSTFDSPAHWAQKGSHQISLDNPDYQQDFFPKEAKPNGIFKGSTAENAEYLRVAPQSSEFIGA
Procedure: (§1) This small number of virtual hits exemplifies the difficulty in discovering the fourth-generation inhibitors that are specific for the triple mutant. This can be understood in the context of the high structural similarity between the mutant and the wild type. All virtual hits were assessed for the presence of inhibitory activity against the d746-750/T790M/C797S mutant and the wild type via in vitro radiometric ([γ-^33P]-ATP) kinase assays (Reaction Biology Corp., Malvern, PA, USA). As a consequence of virtual and experimental screening, four molecules were identified as low-micromolar inhibitors of d746-750/T790M/C797S mutant. Actually, none of the four molecules have previously been reported as EGFR kinase inhibitors. With respect to disproving the possibility of acting as a false positive in enzyme inhibition assays, all four inhibitors were examined in the public ZINC database to confirm the lack of any substructure in pan assay interference compounds (PAINS).
(§2) The inhibitory activities of all compounds with respect to the wild type and the d746-750/T790M/C797S mutant of EGFR were measured by Reaction Biology Corp. (Malvern, PA, USA) using the radiometric kinase assays ([γ-^33P]-ATP). Briefly, the enzymatic reaction mixtures contained an artificial substrate peptide, poly-Glu-Tyr (4:1) in freshly prepared base reaction buffer (20 mM HEPES of pH 7.5, 10 mM MgCl2, 1 mM EGTA, 0.02% Brij-35, 0.02 mg/mL BSA, 0.1 mM Na3VO4, 2 mM DTT, 1% DMSO). Wild-type and mutant EGFR were delivered into the substrate solution and gently mixed. Each inhibitor in 100% DMSO in a serial dilution was then delivered to the reaction mixture using the acoustic dispensing system (Echo550; nanoliter range). To initiate the enzymatic reaction, ^33P-ATP with a specific activity of 10 μCi/μL was added into the reaction mixture, and the mixture was further incubated for 2 h at room temperature. Radioactivity was then monitored by the filter-binding method after reactions were spotted onto P81 ion exchange paper and the filters were washed extensively in 0.75% phosphoric acid. Kinase activity data were expressed as the percent remaining kinase activity in test samples compared to vehicle (dimethyl sulfoxide) reactions. IC50 values and curve fits were calculated with Prism Software (GraphPad Software) at 10 different concentrations. Staurosporine was employed as the positive control in this study.

wild type EGFR = target: T2, wild type EGFR (Homo sapiens, UniProt P00533); assay: radiometric ([γ-33P]-ATP) kinase assay, wild-type EGFR; format: biochemical
T2 construct: purchased Reaction Biology Corp. (Malvern, PA, USA)
T2 sequence (P00533 25-1210): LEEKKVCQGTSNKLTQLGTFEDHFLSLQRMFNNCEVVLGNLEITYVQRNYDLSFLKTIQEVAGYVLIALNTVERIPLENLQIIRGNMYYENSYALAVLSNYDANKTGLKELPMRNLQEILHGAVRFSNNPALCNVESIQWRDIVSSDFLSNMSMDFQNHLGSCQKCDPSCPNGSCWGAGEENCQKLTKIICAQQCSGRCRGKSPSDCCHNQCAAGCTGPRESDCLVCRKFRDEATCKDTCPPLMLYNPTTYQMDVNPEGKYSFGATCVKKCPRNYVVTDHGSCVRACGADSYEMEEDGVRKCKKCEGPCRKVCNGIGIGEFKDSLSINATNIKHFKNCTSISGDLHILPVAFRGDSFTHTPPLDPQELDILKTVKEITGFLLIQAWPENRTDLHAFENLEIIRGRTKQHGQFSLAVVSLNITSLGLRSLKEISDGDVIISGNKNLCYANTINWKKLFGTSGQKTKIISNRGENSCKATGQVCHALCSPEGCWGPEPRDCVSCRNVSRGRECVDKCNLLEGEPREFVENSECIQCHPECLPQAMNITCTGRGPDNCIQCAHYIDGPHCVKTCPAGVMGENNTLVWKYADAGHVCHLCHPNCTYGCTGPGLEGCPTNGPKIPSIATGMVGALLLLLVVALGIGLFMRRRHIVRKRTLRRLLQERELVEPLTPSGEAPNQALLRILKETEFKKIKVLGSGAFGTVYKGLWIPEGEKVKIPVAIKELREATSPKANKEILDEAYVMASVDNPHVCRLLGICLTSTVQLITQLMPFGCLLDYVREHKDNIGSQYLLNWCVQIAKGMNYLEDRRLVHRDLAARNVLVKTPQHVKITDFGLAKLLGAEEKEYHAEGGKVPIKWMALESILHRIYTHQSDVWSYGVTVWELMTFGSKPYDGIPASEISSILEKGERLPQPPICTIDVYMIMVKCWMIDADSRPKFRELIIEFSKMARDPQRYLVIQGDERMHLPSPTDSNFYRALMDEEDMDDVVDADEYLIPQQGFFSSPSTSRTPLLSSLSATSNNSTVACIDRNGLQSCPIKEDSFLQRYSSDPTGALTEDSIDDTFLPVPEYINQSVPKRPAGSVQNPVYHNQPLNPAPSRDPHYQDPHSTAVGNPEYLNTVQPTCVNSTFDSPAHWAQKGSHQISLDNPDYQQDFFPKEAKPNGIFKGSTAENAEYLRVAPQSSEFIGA
Procedure: as §1, §2

[2] = test system: Ba/F3 cell lines with the wild type EGFR; assay: cell proliferation inhibition assay, Ba/F3 wild-type EGFR; conditions: Mus musculus, BaF3, 72 h, read-out: IC50 Ba/F3
Procedure: (§3) The cells were treated with various concentrations of the compounds in duplicate. After 72 h, the fluorescence signals were measured at an excitation wavelength of 540 nm and an emission wavelength of 590 nm using a microplate reader. More specifically, the number of living cells was determined with CellTiter-Glo® Luminescent Cell Viability Assay (Promega).

[3] = test system: Ba/F3 cell lines with the d746-750/T790M/C797S mutant EGFR; assay: cell proliferation inhibition assay, Ba/F3 triple mutant EGFR; conditions: for IC50: Mus musculus, BaF3, 72 h, read-out: IC50 Ba/F3^d746-750/T790M/C797S; for Selectivity: Table 4, Ba/F3 wild type IC50 over mutant IC50
Procedure: as §3

[4] = Table 2, derivatives of 1, mean ± SD of two experiments, read-out: IC50 EGFR^d746-750/T790M/C797S
[5] = Table 2, derivatives of 1, wild type, mean ± SD of two experiments, read-out: IC50 EGFR
[6] = Table 3, derivatives of 2, wild type, mean ± SD of two experiments, read-out: IC50 EGFR
[7] = Table 3, derivatives of 2, mean ± SD of two experiments, read-out: IC50 EGFR^d746-750/T790M/C797S
[8] = Table 1, mean ± standard deviations of two experiments, read-out: IC50 d746-750/T790M/C797S
[9] = Table 1, mean ± standard deviations of two experiments, read-out: IC50 Wild Type

| Structure (SMILES) | IC50 [1, 4] [µM] | Selectivity ([1]; Table 2) | IC50 (wild type EGFR; [5]) [µM] | Selectivity ([1]; Table 3) | IC50 (wild type EGFR; [6]) [µM] | IC50 [1, 7] [µM] | further results |
| --- | --- | --- | --- | --- | --- | --- | --- |
| N#Cc1ccc(O)c(-c2nc(NCc3cc[nH]c3)c3ccccc3n2)c1 [Compound 16, 3-(4-(((1H-pyrrol-3-yl)methyl)amino)quinazolin-2-yl)-4-hydroxybenzonitrile] |  |  |  | >693 | > 50 |  |  |
| N#Cc1ccc(O)c(-c2nc(NCc3cocn3)c3ccccc3n2)c1 [Compound 17, 4-hydroxy-3-(4-((oxazol-4-ylmethyl)amino)quinazolin-2-yl)benzonitrile] |  |  |  | >84.3 | > 50 | 0.593 ± 0.076 |  |
| Oc1ccccc1-c1nc(NCc2cscn2)c2ccccc2n1 [Compound 14, 2-(4-((thiazol-4-ylmethyl)amino)quinazolin-2-yl)phenol] |  |  |  | >44.6 | > 50 | 1.12 ± 0.21 |  |
| Oc1ccccc1-c1nc(NCCN2CCOCC2)c2ccccc2n1 [Compound 2] |  |  |  | 21.4 |  |  | IC50 [1, 8]: 1.73 ± 0.38 µM; Selectivity Index (IC50^WT/IC50^mutant) ([1]; Table 1): 21.4; IC50 (wild type EGFR; [9]): 37.1 ± 2.3 µM |
| CCN(CC)CCCNc1nc(-c2cc(C#N)ccc2O)nc2ccccc12 [Compound 13, 3-(4-((3-(diethylamino)propyl)amino)quinazolin-2-yl)-4-hydroxybenzonitrile] |  |  |  | 319 | 8.45 ± 1.89 | 0.0265 ± 0.0084 |  |
| Cn1cnc(CNc2nc(-c3cc(C#N)ccc3O)nc3ccccc23)c1 [Compound 19, 4-hydroxy-3-(4-(((1-methyl-1H-imidazol-4-yl)methyl)amino)quinazolin-2-yl)benzonitrile] |  |  |  | >14793 | > 50 | 0.00338 ± 0.00102 | biochemical potency against the d746-750/T790M/C797S mutant (in words) [1]: low-nanomolar; selectivity index / factor, triple mutant over the wild type ([1]; enzyme assays): higher than 10^4; IC50 [2]: 2.47 ± 0.89 µM; antiproliferative activity against the d746-750/T790M/C797S mutant cell (in words) [3]: submicromolar level; IC50 [3]: 0.74 ± 0.22 µM; Selectivity [3]: 3.34 |
| N#Cc1ccc(O)c(-c2nc(NCCc3c[nH]cn3)c3ccccc3n2)c1 [Compound 20, 3-(4-((2-(1H-imidazol-4-yl)ethyl)amino)quinazolin-2-yl)-4-hydroxybenzonitrile] |  |  |  | >10331 | > 50 | 0.00484 ± 0.00063 | biochemical potency against the d746-750/T790M/C797S mutant (in words) [1]: low-nanomolar; selectivity index / factor, triple mutant over the wild type ([1]; enzyme assays): higher than 10^4 |
| Cn1cnc(CNc2nc(-c3cc(C=O)ccc3O)nc3ccccc23)c1 [Compound 21, 4-hydroxy-3-(4-(((1-methyl-1H-imidazol-4-yl)methyl)amino)quinazolin-2-yl)benzaldehyde] |  |  |  | 118 | 0.935 ± 0.173 | 0.00793 ± 0.00168 |  |
| CCN(CC)CCCNc1nc(-c2ccccc2O)nc2ccccc12 [Compound 12, 2-(4-((3-(diethylamino)propyl)amino)quinazolin-2-yl)phenol] |  |  |  | >96.9 | > 50 | 0.516 ± 0.206 |  |
| N#Cc1ccc(O)c(-c2nc(NCc3c[nH]cn3)c3ccccc3n2)c1 [Compound 18, 3-(4-(((1H-imidazol-4-yl)methyl)amino)quinazolin-2-yl)-4-hydroxybenzonitrile] |  |  |  | >6693 | > 50 | 0.00747 ± 0.00039 | biochemical potency against the d746-750/T790M/C797S mutant (in words) [1]: low-nanomolar level; selectivity in the inhibition of EGFR^d746-750/T790M/C797S over the wild type ([1]; enzyme assays): more than 6690 fold; IC50 [2]: > 5 µM; antiproliferative activity against the d746-750/T790M/C797S mutant cell (in words) [3]: submicromolar level; IC50 [3]: 0.78 ± 0.31 µM; Selectivity [3]: >6.41 |
| COc1cc(N2CCC(N3CCN(C)CC3)CC2)ccc1Nc1ncc(Cl)c(Nc2ccccc2P(C)(C)=O)n1 [Brigatinib, reference compound] |  |  |  |  |  |  | IC50 [2]: 1.56 ± 0.45 µM; IC50 [3]: 0.067 ± 0.014 µM; Selectivity [3]: 23.3 |
| COc1ccccc1Nc1nc(N)nc(-c2oc3ccccc3c2C)n1 [Compound 3] |  |  |  |  |  |  | IC50 [1, 8]: 2.89 ± 0.91 µM; Selectivity Index (IC50^WT/IC50^mutant) ([1]; Table 1): 12.3; IC50 (wild type EGFR; [9]): 35.5 ± 3.5 µM |
| c1ccc(CNc2ncnc3oc(-c4ccccc4)c(-c4ccccc4)c23)cc1 [Compound 4] |  |  |  |  |  |  | IC50 [1, 8]: 0.802 ± 0.055 µM; Selectivity Index (IC50^WT/IC50^mutant) ([1]; Table 1): 0.00733; biochemical potency against the wild-type EGFR (in words) (wild type EGFR): nanomolar level; IC50 (wild type EGFR; [9]): 0.00588 ± 0.00098 µM; higher inhibitory activity against the wild type than against the d746-750/T790M/C797S mutant (wild type EGFR; enzyme assays): 136 fold |

Further lines, with some results ahead:

| IC50 [1, 4] [µM] | Selectivity ([1]; Table 2) | IC50 (wild type EGFR; [5]) [µM] | Selectivity ([1]; Table 3) | IC50 (wild type EGFR; [6]) [µM] | IC50 [1, 7] [µM] | Structure (SMILES) | further results |
| --- | --- | --- | --- | --- | --- | --- | --- |
| 0.715 ± 0.242 | 1.45 | 1.04 ± 0.16 |  |  |  | O=C1/C(=C/c2cc3cc(O)ccc3o2)Oc2c1ccc(O)c2CN1CCNCC1 [Compound 11, (Z)-6-hydroxy-2-((5-hydroxybenzofuran-2-yl)methylene)-7-(piperazin-1-ylmethyl)benzofuran-3(2H)-one] |  |
| 5.29 ± 1.8 | 14.8 | 78.7 ± 4.6 |  |  |  | CC1CCN(Cc2c(O)ccc3c2O/C(=C\c2cc4ccccc4o2)C3=O)CC1 [Compound 7, (Z)-2-(benzofuran-2-ylmethylene)-6-hydroxy-7-((4-methylpiperidin-1-yl)methyl)benzofuran-3(2H)-one] |  |
| 1.63 ± 0.43 | 22.6 | 36.8 ± 3.9 |  |  |  | COc1ccc2oc(/C=C3\Oc4c(ccc(O)c4CN4CCNCC4)C3=O)cc2c1 [Compound 10, (Z)-6-hydroxy-2-((5-methoxybenzofuran-2-yl)methylene)-7-(piperazin-1-ylmethyl)benzofuran-3(2H)-one] |  |
|  | 34.5 |  |  |  |  | CC1CCCCN1Cc1c(O)ccc2c1O/C(=C\c1cc3ccccc3o1)C2=O (stereo not shown) [Compound 1] | IC50 [1, 8]: 2.11 ± 0.56 µM; Selectivity Index (IC50^WT/IC50^mutant) ([1]; Table 1): 34.5; IC50 (wild type EGFR; [9]): 72.7 ± 4.8 µM |
| 1.94 ± 0.35 | 33.9 | 65.7 ± 6 |  |  |  | CC1CCCN(Cc2c(O)ccc3c2O/C(=C\c2cc4ccccc4o2)C3=O)C1 (stereo not shown) [Compound 6, (Z)-2-(benzofuran-2-ylmethylene)-6-hydroxy-7-((3-methylpiperidin-1-yl)methyl)benzofuran-3(2H)-one] |  |
| 20.1 ± 7.2 | >4.98 | > 100 |  |  |  | COc1ccc2oc(/C=C3\Oc4c(ccc(O)c4CN4CCCC(C)C4)C3=O)cc2c1 (stereo not shown) [Compound 8, (Z)-6-hydroxy-2-((5-methoxybenzofuran-2-yl)methylene)-7-((3-methylpiperidin-1-yl)methyl)benzofuran-3(2H)-one] |  |
| 1.1 ± 0.36 |  | 21.3 ± 6.3 |  |  |  | O=C1/C(=C/c2cc3ccccc3o2)Oc2c1ccc(O)c2CN1CCNCC1 [Compound 9, (Z)-2-(benzofuran-2-ylmethylene)-6-hydroxy-7-(piperazin-1-ylmethyl)benzofuran-3(2H)-one] |  |
| 3.01 ± 0.73 | 22.8 | 68.7 ± 3.4 |  |  |  | O=C1/C(=C/c2cc3ccccc3o2)Oc2c1ccc(O)c2CN1CCCCC1 [Compound 5, (Z)-2-(benzofuran-2-ylmethylene)-6-hydroxy-7-(piperidin-1-ylmethyl)benzofuran-3(2H)-one] |  |
